According to PubChem BioAssay (NCI):
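A five-concentration, 48-hour dose response in 96-well plates underlies each endpoint, interpolated linearly between surrounding concentrations. The concentration for 50% growth inhibition is given as GI50. Definition used: TGI = concentration required for complete inhibition of growth.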

Assays:
Assay in all cases: NCI tumour cell line growth inhibition, 48 h
[1] = tested on: HS 578T breast
[2] = tested on: DU-145 prostate
[3] = tested on: OVCAR-5 ovarian
[4] = tested on: SK-MEL-5 melanoma
[5] = tested on: ACHN renal
[6] = tested on: SW-620 colon
[7] = tested on: SK-OV-3 ovarian
[8] = tested on: K-562 leukemia
[9] = tested on: MCF7 breast
[10] = tested on: SF-268 CNS
[11] = tested on: OVCAR-3 ovarian
[12] = tested on: SNB-19 CNS
[13] = tested on: MOLT-4 leukemia
[14] = tested on: MALME-3M melanoma
[15] = tested on: 786-0 renal
[16] = tested on: MDA-MB-435
[17] = tested on: NCI-H226 lung
[18] = tested on: M14 melanoma
[19] = tested on: NCI-H522 lung
[20] = tested on: SK-MEL-2 melanoma
[21] = tested on: NCI/ADR-RES ovarian
[22] = tested on: PC-3 prostate
[23] = tested on: UACC-62 melanoma
[24] = tested on: BT-549 breast
[25] = tested on: A498 renal
[26] = tested on: HCC-2998 colon
[27] = tested on: T-47D breast
[28] = tested on: NCI-H460 lung
[29] = tested on: UACC-257 melanoma
[30] = tested on: HOP-62 NSCLC
[31] = tested on: HL-60(TB) leukemia
[32] = tested on: KM12 colon
[33] = tested on: COLO 205 colon
[34] = tested on: SF-295 CNS
[35] = tested on: A549 NSCLC
[36] = tested on: EKVX NSCLC
[37] = tested on: HCT-116 colon
[38] = tested on: SN12C renal
[39] = tested on: RPMI-8226 leukemia
[40] = tested on: SR leukemia
[41] = tested on: OVCAR-4 ovarian
[42] = tested on: UO-31 renal
[43] = tested on: SF-539 CNS
[44] = tested on: CAKI-1 renal
[45] = tested on: HCT-15 colon
[46] = tested on: LOX IMVI melanoma
[47] = tested on: HOP-92 NSCLC
[48] = tested on: TK-10 renal
[49] = tested on: RXF 393 renal
[50] = tested on: SNB-75 CNS
[51] = tested on: HT29 colon
[52] = tested on: MDA-MB-231 breast
[53] = tested on: SK-MEL-28 melanoma
[54] = tested on: NCI-H23 lung
[55] = tested on: U251 CNS
[56] = tested on: OVCAR-8 ovarian

CC(=O)O[C@H]1CCC2(C)C(=CCC3C2CCC2(C)/C(=N/OC(=O)c4ccc(N(CCCl)CCCl)cc4)CCC32)C1 (some centres not stated)
GI50 [1]: 2.41 µM | TGI [1]: 13.5 µM | GI50 [2]: > 89.1 µM | TGI [2]: > 100 µM | GI50 [3]: > 72.8 µM | TGI [3]: > 100 µM | GI50 [4]: 20.4 µM | TGI [4]: > 100 µM | GI50 [5]: 5.19 µM | TGI [5]: > 100 µM | GI50 [6]: > 100 µM | TGI [6]: > 100 µM | GI50 [7]: > 100 µM | TGI [7]: > 100 µM | GI50 [8]: 3.9 µM | TGI [8]: > 100 µM | GI50 [9]: 12.7 µM | TGI [9]: > 100 µM | GI50 [10]: 2.55 µM | TGI [10]: 7.71 µM | GI50 [11]: 9.84 µM | TGI [11]: > 100 µM | GI50 [12]: 3.16 µM | TGI [12]: 98.2 µM | GI50 [13]: 4.91 µM | TGI [13]: > 100 µM | GI50 [14]: > 65.4 µM | TGI [14]: > 100 µM | GI50 [15]: 4.21 µM | TGI [15]: > 100 µM | GI50 [16]: 10.8 µM | TGI [16]: > 100 µM | GI50 [17]: > 45.3 µM | TGI [17]: > 100 µM | GI50 [18]: 20.3 µM | TGI [18]: > 100 µM | GI50 [19]: 4.88 µM | TGI [19]: > 82.8 µM | GI50 [20]: 32.4 µM | TGI [20]: > 100 µM | GI50 [21]: 5.73 µM | TGI [21]: > 100 µM | GI50 [22]: 7.99 µM | TGI [22]: > 100 µM | GI50 [23]: 7.86 µM | TGI [23]: > 100 µM | GI50 [24]: 8.67 µM | TGI [24]: > 100 µM | GI50 [25]: 3.52 µM | TGI [25]: > 62.8 µM | GI50 [26]: > 55.5 µM | TGI [26]: > 100 µM | GI50 [27]: 4.02 µM | TGI [27]: > 100 µM | GI50 [28]: 4.65 µM | TGI [28]: > 100 µM | GI50 [29]: > 100 µM | TGI [29]: > 100 µM | GI50 [30]: 4.42 µM | TGI [30]: 24.9 µM | GI50 [31]: 7.01 µM | TGI [31]: > 100 µM | GI50 [32]: 7.13 µM | TGI [32]: > 100 µM | GI50 [33]: > 100 µM | TGI [33]: > 100 µM | GI50 [34]: 3.84 µM | TGI [34]: > 58 µM | GI50 [35]: 2.45 µM | TGI [35]: 8.37 µM | GI50 [36]: 8.78 µM | TGI [36]: > 100 µM | GI50 [37]: 2.34 µM | TGI [37]: > 100 µM | GI50 [38]: 5.48 µM | TGI [38]: > 100 µM | GI50 [39]: 5.68 µM | TGI [39]: > 100 µM | GI50 [40]: 1.4 µM | TGI [40]: 5.98 µM | GI50 [41]: 7.78 µM | TGI [41]: > 100 µM | GI50 [42]: 1.99 µM | TGI [42]: > 20.8 µM | GI50 [43]: 6.89 µM | TGI [43]: > 100 µM | GI50 [44]: 3.88 µM | TGI [44]: > 100 µM | GI50 [45]: 8.87 µM | TGI [45]: > 100 µM | GI50 [46]: 2.6 µM | TGI [46]: > 100 µM | GI50 [47]: 13.8 µM | TGI [47]: > 100 µM | GI50 [48]: 8.71 µM | TGI [48]: > 73.6 µM | GI50 [49]: 3.05 µM | TGI [49]: 45.9 µM | GI50 [50]: 4.47 µM | TGI [50]: 42.7 µM | GI50 [51]: 4.92 µM | TGI [51]: > 100 µM | GI50 [52]: 4.46 µM | TGI [52]: > 100 µM | GI50 [53]: > 100 µM | TGI [53]: > 100 µM | GI50 [54]: 6 µM | TGI [54]: > 100 µM | GI50 [55]: 1.88 µM | TGI [55]: > 28.8 µM | GI50 [56]: 4.02 µM | TGI [56]: > 100 µM
